In patent US20240262814A1, “MODULATORS OF TREX1” (Constellation Pharmaceuticals, Inc., priority 2021, published 2024):

Legend:
human TREX1 = target: T1, human TREX1 (Homo sapiens, UniProt Q9NSU2); test: hTREX1 Biochemical Assay (fluorescence, dsDNA substrate degradation); conditions: full length human TREX1, 4 h pre-incubation, 18 h reaction at 25° C.
T1 construct: N-terminally His-Tev tagged full length human TREX1; made in house; host or cells: E. coli
T1 sequence (Q9NSU2 1-314): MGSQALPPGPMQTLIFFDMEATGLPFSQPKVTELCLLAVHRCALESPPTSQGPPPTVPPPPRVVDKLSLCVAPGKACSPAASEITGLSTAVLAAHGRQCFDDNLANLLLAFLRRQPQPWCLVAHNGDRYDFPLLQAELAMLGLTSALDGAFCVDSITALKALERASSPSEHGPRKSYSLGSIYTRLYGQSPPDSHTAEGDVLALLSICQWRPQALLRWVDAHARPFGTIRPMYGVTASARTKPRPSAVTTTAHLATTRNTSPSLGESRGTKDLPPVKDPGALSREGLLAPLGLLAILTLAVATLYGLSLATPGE
Description: (§1) Degradation of the dsDNA liberates free fluorophore to produce a fluorescent signal. Specifically, 7.5 μL of N-terminally His-Tev tagged full length human TREX1 (expressed in E. coli and purified in house) in reaction buffer (50 mM Tris, 150 mM NaCl, 2 mM DTT, 0.1 mg/mL BSA, 0.01% (w/v) Tween-20, 5 mM MgCl2, pH 7.4) was added to a 384-well Black ProxiPlate Plus (PerkinElmer) which already contained compound (150 nL) at varying concentrations as a 10 point dose-response in DMSO. The plate was incubated at 25° C. for 4 hours. Reactions were initiated by adding 7.5 μL of dsDNA substrate (Strand A: 5′ TEX615/GCT AGG CAG 3′; Strand B: 5′ CTG CCT AGC/IAbRQSp (Integrated DNA Technologies)) in reaction buffer. Final concentrations were 4 pM TREX1, 60 nM dsDNA substrate in reaction buffer with 1.0% DMSO (v/v). After 18 hours at 25° C., reactions were quenched by the addition of 2 p L of 500 mM EDTA. Final concentrations in the quenched reaction were 3.5 pM TREX1, 53 nM DNA and 59 mM EDTA in a volume of 17 μL. After a 5-minute incubation at room temperature, plates were read in an EnVision plate reader (PerkinElmer) measuring fluorescence at 615 nm following excitation w/ 570 nm light. IC50 values were calculated by comparing the measured fluorescence at 615 nm relative to control wells pre-quenched w/ EDTA (100% inhibition) and no inhibitor (0% inhibition) controls as using non-linear least square four parameter fits and either Genedata or GraphPad Prism (GraphPad Software, Inc.).

mouse TREX1 = target: T2, mouse TREX1 (Mus musculus, UniProt Q91XB0); test: mTREX1 Biochemical Assay (fluorescence, dsDNA substrate degradation); conditions: full length mouse TREX1, 4 h pre-incubation, 18 h reaction at 25° C.
T2 construct: N-terminally His-Tev tagged full length mouse TREX1; made in house; host or cells: E. coli
T2 sequence (Q91XB0 1-314): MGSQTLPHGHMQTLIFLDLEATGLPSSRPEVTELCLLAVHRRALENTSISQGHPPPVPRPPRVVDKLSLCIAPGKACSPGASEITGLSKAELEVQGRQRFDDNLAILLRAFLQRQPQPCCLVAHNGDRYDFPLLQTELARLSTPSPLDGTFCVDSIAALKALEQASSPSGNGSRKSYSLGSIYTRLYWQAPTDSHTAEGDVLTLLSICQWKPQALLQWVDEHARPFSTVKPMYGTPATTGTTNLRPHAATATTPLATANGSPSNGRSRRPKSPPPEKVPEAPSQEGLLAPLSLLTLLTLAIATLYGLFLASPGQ
Description: as §1, with “Specifically, 7.5 p L of N-terminally” for “Specifically, 7.5 μL of N-terminally”, “full length mouse TREX1 (expressed” for “full length human TREX1 (expressed”, “concentrations were 6 pM TREX1,” for “concentrations were 4 pM TREX1,”, “reaction were 5.3 pM TREX1,” for “reaction were 3.5 pM TREX1,”, “of 17 p L. After a” for “of 17 μL. After a”

human TREX2 = target: T3, human TREX2 (Homo sapiens, UniProt Q9BQ50); test: hTREX2 Biochemical Assay (selectivity hTREX1 vs hTREX2); conditions: biochemical selectivity for hTREX1 vs hTREX2
T3 construct: human TREX2 (residues M44-A279, expressed in E. coli); made in house; host or cells: E. coli
T3 sequence (Q9BQ50 44-279 isoform Q9BQ50-1): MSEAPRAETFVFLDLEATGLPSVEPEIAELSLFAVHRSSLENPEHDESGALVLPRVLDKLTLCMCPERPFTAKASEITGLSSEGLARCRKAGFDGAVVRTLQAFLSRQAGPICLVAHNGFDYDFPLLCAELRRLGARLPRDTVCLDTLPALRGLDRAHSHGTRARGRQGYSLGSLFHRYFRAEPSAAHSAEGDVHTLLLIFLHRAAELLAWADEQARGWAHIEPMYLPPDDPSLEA
Description: Degradation of the dsDNA liberates free fluorophore to produce a fluorescent signal. Specifically, 7.5 p L of N-terminally His-Tev tagged human TREX2 (residues M44-A279, expressed in E. coli and purified in house) in reaction buffer (50 mM Tris, 150 mM NaCl, 2 mM DTT, 0.1 mg/mL BSA, 0.01% (w/v) Tween-20, 5 mM MgCl2, pH 7.4) was added to a 384-well Black ProxiPlate Plus (PerkinElmer) which already contained compound (150 nL) at varying concentrations as a 10 point dose-response in DMSO. The plate was incubated at 25° C. for 4 hours. Reactions were initiated by adding 7.5 μL of dsDNA substrate (Strand A: 5′ TEX615/GCT AGG CAG 3′; Strand B: 5′ CTG CCT AGC/IAbRQSp (IDT)) in reaction buffer. Final concentrations were 50 pM TREX2, 60 nM dsDNA substrate in reaction buffer with 1.0% DMSO (v/v). After 18 hours at 25° C., reactions were quenched by the addition of 2 μL of 500 mM EDTA. Final concentrations in the quenched reaction mixture were 44 pM TREX2, 53 nM DNA and 59 mM EDTA in a volume of 17 μL. After a 5-minute incubation at room temperature, plates were read in an EnVision plate reader (PerkinElmer) measuring fluorescence at 615 nm following excitation w/ 570 nm light. IC50 values were calculated by comparing the measured fluorescence at 615 nm relative to control wells pre-quenched w/ stop buffer (100% inhibition) and no inhibitor (0% inhibition) controls as using non-linear least square four parameter fits and either Genedata or GraphPad Prism (GraphPad Software, Inc.).

Row | IC50 (human TREX1) | IC50 (mouse TREX1) | hTREX1 vs hTREX2 selectivity (human TREX2) | Structure (SMILES)
1 | 10 to 100 nM | > 10 nM | A (A = <25 fold selective for hTREX1) | C[C@H](c1nc(C(=O)Nc2cnoc2)c(O)c(=O)n1C)[C@H](c1ccccc1)c1ccccc1Cl (single isomer, unassigned) [Example 2 Isomer 2, 2-(1-(2-chlorophenyl)-1-phenylpropan-2-yl)-5-hydroxy-N-(isoxazol-4-yl)-1-methyl-6-oxo-1,6-dihydropyrimidine-4-carboxamide]
2 | > 100 nM | > 10 nM | A (A = <25 fold selective for hTREX1) | C[C@H](c1nc(C(=O)Nc2cnoc2)c(O)c(=O)n1C)[C@H](c1ccccc1)c1ccccc1Cl (single isomer, unassigned) [Example 2 Isomer 4, 2-(1-(2-chlorophenyl)-1-phenylpropan-2-yl)-5-hydroxy-N-(isoxazol-4-yl)-1-methyl-6-oxo-1,6-dihydropyrimidine-4-carboxamide]
3 | > 100 nM | > 10 nM | A (A = <25 fold selective for hTREX1) | CC(c1nc(C(=O)Nc2cnoc2)c(O)c(=O)n1C)C(c1ccccc1)c1ccccc1C#N (single isomer, unassigned) [Example 3 Isomer 2]
4 | > 100 nM | > 10 nM | A (A = <25 fold selective for hTREX1) | CC(c1nc(C(=O)Nc2cnoc2)c(O)c(=O)n1C)C(c1ccccc1)c1ccccc1C#N (single isomer, unassigned) [Example 3 Isomer 3]
5 | 1 to 10 nM | > 10 nM | C (C = >50 fold selective for hTREX1) | CC(c1nc(C(=O)Nc2cnoc2)c(O)c(=O)n1C)C(c1ccccc1)c1cc(F)ccc1C#N (single isomer, unassigned) [Example 6 Isomer 1]
6 | > 100 nM | > 10 nM | A (A = <25 fold selective for hTREX1) | CC(c1nc(C(=O)Nc2cnoc2)c(O)c(=O)n1C)C(c1ccccc1)c1cc(F)ccc1C#N (single isomer, unassigned) [Example 6 Isomer 3]
7 | < 1 nM | > 10 nM | C (C = >50 fold selective for hTREX1) | CC(c1nc(C(=O)Nc2cnoc2)c(O)c(=O)n1C)C(c1ccccc1)c1ccc(F)cc1C#N (single isomer, unassigned) [Example 7 Isomer 1]
8 | > 100 nM | > 10 nM | A (A = <25 fold selective for hTREX1) | CC(c1nc(C(=O)Nc2cnoc2)c(O)c(=O)n1C)C(c1ccccc1)c1ccc(F)cc1C#N (single isomer, unassigned) [Example 7 Isomer 2]
9 | 1 to 10 nM | > 10 nM | C (C = >50 fold selective for hTREX1) | CC(c1nc(C(=O)Nc2cnoc2)c(O)c(=O)n1C)C(c1ccccc1)c1cc(Cl)ccc1C#N (single isomer, unassigned) [Example 8 Isomer 3]
10 | 1 to 10 nM | > 10 nM | C (C = >50 fold selective for hTREX1) | CC(c1nc(C(=O)Nc2cnoc2)c(O)c(=O)n1C)C(c1ccccc1)c1ccc(Cl)cc1C#N (single isomer, unassigned) [Example 9 Isomer 1]

Row | Structure (SMILES) | IC50 (human TREX1) | IC50 (mouse TREX1) | hTREX1 vs hTREX2 selectivity (human TREX2)
11 | CC(c1nc(C(=O)Nc2cnoc2)c(O)c(=O)n1C)C(c1ccccc1)c1ccccc1C#N (single isomer, unassigned) [Example 3 Isomer 1] | 1 to 10 nM | > 10 nM | B (B = 25 to 50 fold selective for hTREX1)
12 | CC(c1nc(C(=O)Nc2cnoc2)c(O)c(=O)[nH]1)C(c1ccccc1C#N)c1ccccc1C#N (single isomer, unassigned) [Example 5 Isomer 1, 2-(1,1-bis(2-cyanophenyl)propan-2-yl)-5-hydroxy-N-(isoxazol-4-yl)-6-oxo-1,6-dihydropyrimidine-4-carboxamide] | < 1 nM | 1 to 10 nM | B (B = 25 to 50 fold selective for hTREX1)
13 | CC(c1nc(C(=O)Nc2cnoc2)c(O)c(=O)n1C)C(c1ccccc1)c1ccc(F)cc1C#N (single isomer, unassigned) [Example 7 Isomer 4] | < 1 nM | 1 to 10 nM | B (B = 25 to 50 fold selective for hTREX1)
14 | CC(c1nc(C(=O)Nc2cnoc2)c(O)c(=O)n1C)C(c1ccccc1)c1cc(Cl)ccc1C#N (single isomer, unassigned) [Example 8 Isomer 4] | 10 to 100 nM | > 10 nM | B (B = 25 to 50 fold selective for hTREX1)
15 | CC(c1nc(C(=O)Nc2cnoc2)c(O)c(=O)n1C)C(c1ccccc1)c1ccc(Cl)cc1C#N (single isomer, unassigned) [Example 9 Isomer 2] | > 100 nM | > 10 nM | B (B = 25 to 50 fold selective for hTREX1)
